According to patent US20140186329A1, “POLYPHENOL ANALOGS TO TREAT ISCHEMIA” (priority 2011, published 2014):

Key:
[1] = TEAC, ABTS decolorization assay; conditions: relative to Trolox
In short: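 Compound in ethanol added to persulfate-generated ABTS radical cation (OD ~0.7 at 734 nm); absorbance decrease followed at 734 nm for 4 min. TEAC is the slope of percent absorbance inhibition versus concentration divided by the corresponding Trolox slope.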

Nrf2 = Nrf2 induction, SDS-PAGE and Western blotting of nuclear extracts; assay type: cell-based; conditions: cells treated 1, 2 and 4 hr
Description: For immunoblotting of Nrf2, nuclear extracts were prepared as described (Schreiber, et al., Nucleic Acids Res. (1989) 17 (15), 6419) from untreated cells and cells treated with the Fisetin derivatives for 1, 2 and 4 hr. Fisetin was used as a positive control. […] Protein concentrations were determined using the BCA protein assay (Pierce). Equal amounts of protein were solubilized in 2.5×SDS-sample buffer, separated on 10% SDS-polyacrylamide gels and transferred to nitrocellulose. Equal loading and transfer of the samples was confirmed by staining the nitrocellulose with Ponceau-S. Transfers were blocked for 1 hr at room temperature with 5% nonfat milk in TBS/0.1% Tween 20 and then incubated overnight at 4° C. in the primary antibody diluted in 5% BSA in TBS/0.05% Tween 20. The primary antibodies used were: anti-Nrf2 (#SC13032; 1/1000) from Santa Cruz Biotechnology (Santa Cruz, Calif.) and anti-β-actin (#5125; 1/20,000) from Cell Signaling (Beverly, Mass.). The transfers were rinsed with TBS/0.05% Tween 20 and incubated for 1 hr at room temperature in horseradish peroxidase-goat anti-rabbit or goat anti-mouse (Biorad, Hercules, Calif.) diluted 1/5000 in 5% nonfat milk in TBS/0.1% Tween 20. The immunoblots were developed with the Super Signal reagent (Pierce, Rockford, Ill.).
The transcription factor Nrf2 plays a key role in regulating GSH metabolism in many different cell types (Lewerenz, et al., Antioxidant & Redox Signaling. (2011) 14, 1449-1465). We have shown that Fisetin can induce Nrf2 and this correlates with its ability to enhance GSH levels (Maher, P. et al., Genes. Nutr. (2009) September 10). To determine if the derivatives which can maintain GSH levels do so by increasing Nrf2 we looked at Nrf2 levels in the nuclei of derivative-treated cells using Fisetin as a positive control (Table 4). […] This was particularly true for the derivatives based on the quinoline scaffold where none of them increased Nrf2 despite being very effective at maintaining GSH levels.

| SMILES | TEAC [1] | Nrf2 (ability to induce the transcription factor Nrf2) (Nrf2) |
| --- | --- | --- |
| O=C(/C=C/c1ccc(O)c(O)c1)c1ccc2ccccc2c1O [CMS-034, (E)-3-(3,4-dihydroxyphenyl)-1-(1-hydroxynaphthalen-2-yl)prop-2-en-1-one] | 2.8 | Yes |
| O=c1c(O)c(-c2ccc(N3CCCC3)c(O)c2)oc2c1ccc1ccccc12 [CMS-140, 3-hydroxy-2-(3-hydroxy-4-(pyrrolidin-1-yl)phenyl)-4H-benzo[h]chromen-4-one] | 2.1 | No |
| COc1cc(-c2ccc(O)c(O)c2)nc2ccccc12 [CMS-007, 4-methoxy-2-(3,4-dihydroxyphenyl) quinoline] | 0.36 | No |
| O=c1c(O)c(-c2ccc(O)c(O)c2)oc2c1ccc1ccccc12 [CMS-040, 2-(3,4-dihydroxyphenyl)-3-hydroxy-4H-benzo[h]chromen-4-one] | 2.4 |  |
| COc1cc(-c2oc3cc(C)c(C)cc3c(=O)c2O)ccc1O [CMS-069, 3-hydroxy-2-(4-hydroxy-3-methoxyphenyl)-6,7-dimethyl-4H-chromen-4-one] | 1.89 |  |
| CN(C)c1ccc(-c2oc3c(ccc4ccccc43)c(=O)c2O)cc1 [CMS-118, 2-(4-(dimethylamino)phenyl)-3-hydroxy-4H-benzo[h]chromen-4-one] | 0.93 | No |
| O=c1c(O)c(-c2ccc(O)c(O)c2)oc2ccccc12 [CMS-04P, reference compound] | 2 | Yes |
| Cc1cc(O)c(C(=O)/C=C/c2ccc(O)c(O)c2)cc1C [CMS-011, (E)-3-(3,4-dihydroxyphenyl)-1-(2-hydroxy-4,5-dimethylphenyl)prop-2-en-1-one] | 2.7 | Yes |
| CC(C)Oc1cc(-c2ccc(O)c(O)c2)nc2ccccc12 [CMS-024, 4-isopropoxy-2-(3,4-dihydroxyphenyl) quinoline] | 0.18 | No |
| COc1cc(-c2oc3cc(C)c(C)cc3c(=O)c2O)ccc1OCc1ccccc1 [CMS-059, 2-(4-(benzyloxy)-3-methoxyphenyl)-3-hydroxy-6,7-dimethyl-4H-chromen-4-one] | 0.27 |  |
| Oc1ccc(-c2cc(OC3CCCC3)c3ccccc3n2)cc1O [CMS-121, 4-cyclopentyloxy-2-(3,4-dihydroxyphenyl) quinoline] | 0.40 | No |
| COc1ccc(/C=C/C(=O)c2cc(C)c(C)cc2O)cc1OCc1ccccc1 [CMS-086, (E)-3-(3-(benzyloxy)-4-methoxyphenyl)-1-(2-hydroxy-4,5-dimethylphenyl)prop-2-en-1-one] | 0.12 | Yes |
| CCOc1cc(-c2ccc(O)c(O)c2)nc2ccccc12 [CMS-023, 4-ethoxy-2-(3,4-dihydroxyphenyl) quinoline] | 0.90 | No |
| Cc1cc2oc(-c3ccc(N(C)C)cc3)c(O)c(=O)c2cc1C [CMS-117, 2-(4-(dimethylamino)phenyl)-3-hydroxy-6,7-dimethyl-4H-chromen-4-one] | 3 | No |
| O=c1c(O)c(-c2ccc(O)c(O)c2)oc2cc(O)ccc12 [Fisetin, 3,7,3′,4′-Tetrahydroxyflavone, reference compound] | 3 | Yes |
| Cc1cc2oc(-c3ccc(N4CCCC4)cc3)c(O)c(=O)c2cc1C [CMS-122, 3-hydroxy-6,7-dimethyl-2-(4-(pyrrolidin-1-yl)phenyl)-4H-chromen-4-one] | 2.4 | No |
